Among the data in patent publication US12559474B2, “Triazine derivatives having virus replication inhibitory activity and pharmaceutical composition comprising the same” (priority 2021, dated 2026) are IC50 values, retold here.

This test concerns the target SARS-CoV-2 3CL protease (Severe acute respiratory syndrome coronavirus 2, UniProt P0DTD1). Put plainly: biochemical. The following applies: IC50.

A word on the IC50: it is the concentration that gives 50% inhibition. Higher therefore signals a need for much substance. In turn, `Cn1cnc(Cn2c(=O)nc(Nc3cc4cn(CC(=O)N5CC(F)(F)C5)nc4cc3Cl)n(Cc3cc(Cl)c(F)cc3F)c2=O)n1` [II-0136] had an IC50 below 100 nM. As for `CNC(=O)Cn1cc2cc(Nc3nc(=O)n(Cc4ncn(C)n4)c(=O)n3Cc3cc(Cl)c(F)cc3F)c(Cl)cc2n1` [II-0137], the figure is below 100 nM; as for `Cn1cnc(Cn2c(=O)nc(Nc3cc4cn(CC(=O)N5CCCC5)nc4cc3Cl)n(Cc3cc(Cl)c(F)cc3F)c2=O)n1` [II-0138], below 100 nM; as for `Cn1cnc(Cn2c(=O)nc(Nc3cc4cn(CC(=O)N5CCOCC5)nc4cc3Cl)n(Cc3cc(F)c(F)c(Cl)c3)c2=O)n1` [II-0139], below 100 nM. For `COCCN(C)C(=O)Cn1cc2cc(Nc3nc(=O)n(Cc4ncn(C)n4)c(=O)n3Cc3cc(F)c(F)c(Cl)c3)c(Cl)cc2n1` [II-0141], the half-inhibitory concentration (IC50) is below 100 nM. In the case of `Cn1cnc(Cn2c(=O)nc(Nc3cc4cn(CC(=O)N5CCCCC5)nc4cc3Cl)n(Cc3cc(F)c(F)c(Cl)c3)c2=O)n1` [II-0142], the IC50 is below 100 nM.

`Cn1cnc(Cn2c(=O)nc(Nc3cc4cn(CC(=O)N5CC(F)(F)C5)nc4cc3Cl)n(Cc3cc(F)c(F)c(Cl)c3)c2=O)n1` [II-0143] registered an IC50 below 100 nM. For `CNC(=O)Cn1cc2cc(Nc3nc(=O)n(Cc4ncn(C)n4)c(=O)n3Cc3cc(F)c(F)c(Cl)c3)c(Cl)cc2n1` [II-0145] the value was below 100 nM; for `CN(C(=O)Cn1cc2cc(Nc3nc(=O)n(Cc4ncn(C)n4)c(=O)n3Cc3cc(Cl)c(F)cc3F)c(Cl)cc2n1)C1CC1` [II-0146], below 100 nM. Consider `Cn1cnc(Cn2c(=O)nc(Nc3cc4cn(CC(=O)N5CCCC5)nc4cc3Cl)n(Cc3cc(F)c(F)c(Cl)c3)c2=O)n1` [II-0147], for which the IC50 is below 100 nM. As for `Cn1cnc(Cn2c(=O)nc(Nc3cc4cn(CC(=O)NC5CC5)nc4cc3Cl)n(Cc3cc(Cl)c(F)cc3F)c2=O)n1` [II-0148], the figure is below 100 nM. The molecule `Cn1cnc(Cn2c(=O)nc(Nc3cc4cn(CC(=O)N5CCC5)nc4cc3Cl)n(Cc3cc(Cl)c(F)cc3F)c2=O)n1` [II-0149] returned a concentration for half-maximal inhibition (IC50) below 100 nM. With `CCNC(=O)Cn1cc2cc(Nc3nc(=O)n(Cc4ncn(C)n4)c(=O)n3Cc3cc(F)c(F)c(Cl)c3)c(Cl)cc2n1` [II-0150], the half-maximal inhibitory concentration (IC50) was below 100 nM. Turning to `CCNC(=O)Cn1cc2cc(Nc3nc(=O)n(Cc4ncn(C)n4)c(=O)n3Cc3cc(Cl)c(F)cc3F)c(Cl)cc2n1` [II-0151], the IC50 was below 100 nM. `Cn1cnc(Cn2c(=O)nc(Nc3cc4cn(CC(=O)NC5CC5)nc4cc3Cl)n(Cc3cc(F)c(F)c(Cl)c3)c2=O)n1` [II-0152] gave an IC50 below 100 nM. For `Cn1cnc(Cn2c(=O)nc(Nc3cc4cn(CC(=O)N5CCC5)nc4cc3Cl)n(Cc3cc(F)c(F)c(Cl)c3)c2=O)n1` [II-0153] the value was below 100 nM; for `CN(C(=O)Cn1cc2cc(Nc3nc(=O)n(Cc4ncn(C)n4)c(=O)n3Cc3cc(F)c(F)c(Cl)c3)c(Cl)cc2n1)C1CC1` [II-0155], below 100 nM; for `CC(=O)Nc1nc2ccc(Nc3nc(=O)n(-c4cncc5ccccc45)c(=O)n3Cc3ccc(F)c(C#N)c3)cc2s1` [II-0170], below 100 nM. The molecule `Cc1cncc(-n2c(=O)nc(Nc3ccc4[nH]ncc4c3)n(Cc3ccc(F)c(C#N)c3)c2=O)c1` [II-0206] registered an IC50 below 100 nM.

`CC(C)(C)OC(=O)NC12CC(Nc3nc(=O)n(Cc4ccc[nH]c4=O)c(=O)n3Cc3cc(F)c(F)c(F)c3)(C1)C2` [II-0209] came in with an IC50 below 100 nM.

In turn, `Cn1cnc(Cn2c(=O)nc(Nc3cc4cn(C)nc4cc3Cl)n(Cc3cc(F)cc4c3OCOC4)c2=O)n1` [II-0211] returned an IC50 below 100 nM. Molecule `COC(=O)c1cccc2c1CN(c1nc(=O)n(Cc3ccc[nH]c3=O)c(=O)n1Cc1cc(F)c(F)c(F)c1)C2` [II-0216] gave an IC50 below 100 nM. As for `Cn1cnc(Cn2c(=O)nc(Nc3cc4cn(C)nc4cc3Cl)n(Cc3cccc4cccnc34)c2=O)n1` [II-0224], the figure is 1900 nM; as for `Cn1cnc(Cn2c(=O)nc(Nc3cc4cn(C)nc4cc3Cl)n(Cc3c4ccccc4cc4ccccc34)c2=O)n1` [II-0225], 2700 nM.

On to `O=c1[nH]cccc1Cn1c(=O)nc(NC(c2ccccc2)c2ccccc2O)n(Cc2cc(F)c(F)c(F)c2)c1=O` (centres unmarked) [II-0229], for which the midpoint of inhibition, the IC50, lay at 250 nM. As for `C[C@H](Nc1nc(=O)n(Cc2ccc[nH]c2=O)c(=O)n1Cc1cc(F)c(F)c(F)c1)c1ccccc1` [II-0230], the figure is 550 nM; as for `O=c1[nH]cccc1Cn1c(=O)nc(NC2CC(F)(F)C2)n(Cc2cc(F)c(F)c(F)c2)c1=O` [II-0231], 880 nM.

Turning to `CC(=O)NCCn1cc2cc(Nc3nc(=O)n(Cc4ccccn4)c(=O)n3Cc3cc(F)c(F)cc3F)c(Cl)cc2n1` [II-0248], the IC50 was below 100 nM. For `Cn1cc2cc(Nc3nc(=O)n(Cc4cc5[nH]cnc5cn4)c(=O)n3Cc3cc(F)c(F)cc3F)c(Cl)cc2n1` [II-0256] the value was 160 nM; for `CNc1nc2cc(Cl)c(Nc3nc(=O)n(Cc4ncn(C)n4)c(=O)n3Cc3cc(Cl)c(F)cn3)cc2s1` [II-0266], below 100 nM; for `CCn1cc2cc(Nc3nc(=O)n(Cc4ncn(C)n4)c(=O)n3Cc3cc(Cl)c(F)cn3)c(Cl)cc2n1` [II-0268], below 100 nM.

Consider `COc1ccc(Nc2nc(=O)n(CC3(C)COC3)c(=O)n2Cc2cc(F)c(F)c(F)c2)cc1` [II-0274], for which the IC50 is 3000 nM. The molecule `CN(C)C(=O)Cn1cc2cc(Nc3nc(=O)n(Cc4ncn(C)n4)c(=O)n3Cc3cc(Cl)c(F)cc3F)c(Cl)cc2n1` [II-0276] showed a half-inhibitory concentration (IC50) below 100 nM. For `CN(C)C(=O)Cn1cc2cc(Nc3nc(=O)n(Cc4ncn(C)n4)c(=O)n3Cc3cc(F)c(F)c(Cl)c3)c(Cl)cc2n1` [II-0277] the value was below 100 nM. As for `CN(C)C(=O)Cn1cc2cc(Nc3nc(=O)n(Cc4ncn(C)n4)c(=O)n3Cc3cc(F)c(F)cc3F)c(Cl)cc2n1` [II-0280], the figure is below 100 nM; as for `CNc1nc2cc(F)c(Nc3nc(=O)n(-c4cncc(C)c4)c(=O)n3Cc3cc(F)c(F)c(Cl)c3)cc2s1` [II-0293], below 100 nM; as for `CC(=O)Nc1nc2cc(Cl)c(Nc3nc(=O)n(Cc4ncn(C)n4)c(=O)n3Cc3cc(F)c(F)c(F)c3)cc2s1` [II-0310], below 100 nM. As for `CNC(=O)c1cnc2[nH]c(=O)c(Cn3c(=O)nc(Nc4ccc5c(c4)CCO5)n(Cc4cc(F)c(F)c(F)c4)c3=O)cc2c1` [II-0314], the figure is below 100 nM; as for `CN(C)C(=O)c1cnc2[nH]c(=O)c(Cn3c(=O)nc(Nc4ccc5c(c4)CCO5)n(Cc4cc(F)c(F)c(F)c4)c3=O)cc2c1` [II-0315], below 100 nM. Regarding `NC(=O)c1cnc2[nH]c(=O)c(Cn3c(=O)nc(Nc4ccc5c(c4)CCO5)n(Cc4cc(F)c(F)c(F)c4)c3=O)cc2c1` [II-0317], the IC50 is below 100 nM. For `Cn1cnc(Cn2c(=O)nc(Nc3cc4cn(CC(=O)O)nc4cc3Cl)n(Cc3cc(Cl)c(F)cc3F)c2=O)n1` [II-0319], the IC50 was below 100 nM.

For the molecule `Cn1cnc(Cn2c(=O)nc(Nc3cc4cn(CC(=O)O)nc4cc3Cl)n(Cc3cc(F)c(F)c(Cl)c3)c2=O)n1` [II-0321], the IC50 is below 100 nM. For `COc1ccc(Nc2nc(=O)n(Cc3cc(C(=O)NCc4cnn(C)c4)c[nH]c3=O)c(=O)n2Cc2cc(F)c(F)c(F)c2)cc1` [II-0324], the IC50 was below 100 nM. As for `COc1ccc(Nc2nc(=O)n(Cc3cc(C(=O)NCc4ccn(C)n4)c[nH]c3=O)c(=O)n2Cc2cc(F)c(F)c(F)c2)cc1` [II-0325], the figure is below 100 nM; as for `COc1ccc(Cc2nc(=O)n(Cc3ccc[nH]c3=O)c(=O)n2Cc2cc(F)c(F)c(F)c2)cc1` [II-0327], 1500 nM; as for `CNC(=O)Cn1c(=O)[nH]/c(=N\c2cc3cn(C)nc3cc2Cl)n(Cc2cc(F)c(F)c(F)c2)c1=O` [II-0328], below 100 nM.

`CNC(=O)Cn1c(=O)[nH]/c(=N\c2ccc(OC(F)F)cc2C)n(Cc2cc(F)c(F)c(F)c2)c1=O` [II-0331] came in with an IC50 of 1000 to 10000 nM. Take `CN(C)C(=O)CCn1cc2cc(Nc3nc(=O)n(Cc4ncn(C)n4)c(=O)n3Cc3cc(Cl)c(F)cc3F)c(Cl)cc2n1` [II-0338]: the IC50 is below 100 nM. The molecule `CCNc1nc2cc(Cl)c(Nc3nc(=O)n(Cc4ncn(C)n4)c(=O)n3Cc3cc(Cl)c(F)cn3)cc2s1` [II-0340] showed an IC50 below 100 nM. With `Cc1cncc(-n2c(=O)nc(Nc3ccc4nnn(C)c4c3)n(Cc3ccc(F)c(C#N)c3)c2=O)c1` [II-0357], the IC50 was below 100 nM. Molecule `Cc1cncc(-n2c(=O)nc(Nc3cc4c(cc3C)nc(C)n4C)n(Cc3ccc(F)c(C#N)c3)c2=O)c1` [II-0358] gave a half-maximal inhibitory concentration (IC50) below 100 nM.

With `O=c1[nH]cccc1Cn1c(=O)nc(N[C@@H]2CCN(c3ccccn3)C2)n(Cc2cc(F)c(F)c(F)c2)c1=O` [II-0374], 3500 nM corresponded to half-maximal inhibition (IC50). For `Cn1cnc(Cn2c(=O)cc(Nc3cc4cn(C)nc4cc3Cl)n(Cc3ccc(F)c(C#N)c3)c2=O)n1` [II-0379] the value was below 100 nM. As for `Cn1cnc(Cn2c(=O)nc(Nc3cc4c(cc3Cl)nc3n4CCN3)n(Cc3cc(F)c(F)c(Cl)c3)c2=O)n1` [II-0411], the figure is below 100 nM; as for `Cc1cncc(-n2c(=O)nc(Nc3cc4sc(NS(C)(=O)=O)nc4cc3Cl)n(Cc3ccc(F)c(C#N)c3)c2=O)c1` [II-0427], below 100 nM; as for `Cn1cnc(Cn2c(=O)nc(Nc3cc4cn(C)nc4cc3Cl)n(Cc3cc(Cl)ccc3O)c2=O)n1` [II-0428], 840 nM. As for `Cn1cnc(Cn2c(=O)cc(Nc3cc4cn(CC(F)F)nc4cc3Cl)n(Cc3ccc(F)c(C#N)c3)c2=O)n1` [II-0432], the figure is below 100 nM; as for `COc1cnc(NC23CC(Nc4nc(=O)n(Cc5ccc[nH]c5=O)c(=O)n4Cc4cc(F)c(F)c(F)c4)(C2)C3)nc1` [II-0441], below 100 nM; as for `O=c1[nH]cccc1Cn1c(=O)nc(NC23CC(Nc4ncccn4)(C2)C3)n(Cc2cc(F)c(F)c(F)c2)c1=O` [II-0443], below 100 nM. As for `Cc1cnc(NC23CC(Nc4nc(=O)n(Cc5ccc[nH]c5=O)c(=O)n4Cc4cc(F)c(F)c(F)c4)(C2)C3)nc1` [II-0444], the IC50 is below 100 nM. In turn, `O=c1[nH]cccc1Cn1c(=O)nc(NC23CC(Nc4ncc(C5CC5)cn4)(C2)C3)n(Cc2cc(F)c(F)c(F)c2)c1=O` [II-0445] returned an IC50 below 100 nM. As for `CN1CC[C@H](n2cc3cc(Nc4nc(=O)n(Cc5ncn(C)n5)c(=O)n4Cc4cc(Cl)c(F)cc4F)c(Cl)cc3n2)C1=O` [II-0447], the figure is below 100 nM.
